According to patent US20210220345A1, “METHODS FOR THE ADMINISTRATION OF COMT INHIBITORS” (Neurocrine Biosciences, Inc., priority 2018, published 2021):

What was measured:
clinical = conditions: human, in vivo
Description: This was a Phase 1, open-label, one-sequence crossover, drug-interaction study to evaluate and compare the PK of repaglinide when administered alone and concomitantly with OPC (micronized). Subjects received a single dose of repaglinide 0.5 mg on Days 1 and 15 at approximately 0800 hours. In addition, subjects received OPC 50 mg once daily on Days 2 through 15 at approximately 0800 hours.
Subjects were required to fast overnight from midnight (2400 hours) until 2 hours postdose on Days 1 through 15. Blood samples for pharmacokinetic analysis of OPC and its metabolites and for repaglinide were collected at scheduled times during the study. Safety and tolerability assessments were conducted at scheduled times during the study.
Blood samples to determine repaglinide plasma concentrations were collected on Days 1 and 15 at approximately 30 minutes prior to repaglinide dosing and at 0.25, 0.5, 0.75, 1, 1.5, 2, 3, 4, 5, 6, 8, 10, 12, and 24 hours post-repaglinide dosing.
PK parameters for OPC and its metabolites and repaglinide were calculated using non-compartmental methods.
A statistical assessment of the drug-drug interaction between repaglinide and opicapone is provided below. A repeated measures linear mixed model with fixed effect for treatment and random effect for subject was utilized. An unstructured variance-covariance matrix was assumed for the mixed model analysis. Geometric means (GM), ratios of geometric means (GMR), and their confidence intervals (CI) are shown on the original scale of measurement. Within-Subject CV was calculated as 100*sqrt[(sA2+sC2−2sAC)/2], where sA2 and sC2 are the estimated variances on the log scale for the two treatments, and sAC is the corresponding estimated covariance.

[1] = cited from earlier work
CYP2C8 = target: T1, CYP2C8 (Homo sapiens, UniProt P10632); conditions: statement of the European approved drug label; cited from earlier work
T1 sequence (P10632 1-490): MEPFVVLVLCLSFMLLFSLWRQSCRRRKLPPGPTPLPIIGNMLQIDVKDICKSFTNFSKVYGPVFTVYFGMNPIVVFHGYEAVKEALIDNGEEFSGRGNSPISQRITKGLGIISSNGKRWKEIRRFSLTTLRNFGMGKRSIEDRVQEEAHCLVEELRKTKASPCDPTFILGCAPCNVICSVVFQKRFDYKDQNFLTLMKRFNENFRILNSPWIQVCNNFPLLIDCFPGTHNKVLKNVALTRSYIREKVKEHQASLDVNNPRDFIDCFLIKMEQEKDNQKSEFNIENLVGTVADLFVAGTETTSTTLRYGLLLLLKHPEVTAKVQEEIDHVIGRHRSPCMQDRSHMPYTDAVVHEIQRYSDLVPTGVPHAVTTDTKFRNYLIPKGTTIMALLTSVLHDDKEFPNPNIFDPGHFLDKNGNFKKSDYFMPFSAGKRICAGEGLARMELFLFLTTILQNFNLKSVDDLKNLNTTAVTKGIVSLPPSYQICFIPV

[2] = non-micronized opicapone 25 mg single dose, repaglinide 0.5 mg

Tmax (clinical) [min]	half-life (clinical) [min]	AUC(0-inf) (clinical; AUC0-inf, GM) [ng·h/mL]	AUC(0-t) (clinical; AUC0-t, GM) [ng·h/mL]	Cmax (clinical; Cmax, GM) [ng/mL]	Compound	increase in repaglinide AUC0-tlast when taken with opicapone vs. repaglinide alone [1, 2] [%]	increase in repaglinide Cmax when taken with opicapone vs. repaglinide alone [1, 2] [%]	average increase in the rate of exposure to repaglinide when co-administered with opicapone ([1]; opicapone 25 mg, less than optimal formulation, rate but not extent of exposure increased) [%]	inhibition of CYP2C8 (CYP2C8)
30	38.4	11.6	10.9	10.1	CCOc1cc(CC(=O)N[C@@H](CC(C)C)c2ccccc2N2CCCCC2)ccc1C(=O)O [Repaglinide, repaglinide]	–	–	–	–
–	–	–	–	–	Cc1c(Cl)c(C)[n+]([O-])c(Cl)c1-c1noc(-c2cc(O)c(O)c([N+](=O)[O-])c2)n1 [opicapone, 5-[3-(2,5-dichloro-4,6-dimethyl-1-oxy-pyridin-3-yl)-[1,2,4]oxadiazol-5-yl]-3-nitrobenzene-1,2-diol]	9	31	30	weak inhibitor
